Here are results for 1 molecule from PMC4979060, “Structural basis of metallo-β-lactamase, serine-β-lactamase and penicillin-binding protein inhibition by cyclic boronates” (Nature Communications, 2016).

Bounds are passed on as bounds.

One data set deals with T1, IMP-1 (Serratia marcescens, UniProt P52699).
T1 construct: made in house; host or cells: E. coli
The data set can be described thus: Fluorogenic β-lactamase inhibition assay (FC-5 substrate), IMP-1. It counts as biochemical. As to the method:
(§1) Kinetic and inhibition analyses, and ^19F NMR studies[10] against bacterial β-lactamases were performed as described. The FC-5 cephalosporin[9] was used as substrate for BcII, VIM-2, IMP-1, NDM-1, SPM-1, TEM-1 and OXA-10, meropenem[28] for CphA and nitrocefin[34] for PBP 3 and PBP 5.
In brief IC50 values were determined by preincubation of the appropriate amount of enzyme with the cyclic boronates in the assay buffers for 10 min at room temperature prior to the initiation of the assay by the addition of the appropriate substrate. The enzyme concentrations used are the following: 1 nM BcII, 100 nM VIM-2, 10 nM IMP-1, 10 nM NDM-1, 1 nM SPM-1, 1 nM TEM-1, 1 nM OXA-10, 2.5 nM CphA, 4 μM PBP 3 and 5 μM PBP 5; note that the final concentrations are stated. […]
The experiments were performed using a PHERAstar FS microplate reader (BMG Labtech) at room temperature (24–25 °C). […] The IC50 values were determined using the software package Graph Prism 5.

A further data set addresses T2, BcII (Bacillus cereus, UniProt P04190).
T2 construct: made in house; host or cells: E. coli
Put plainly: Fluorogenic β-lactamase inhibition assay (FC-5 substrate), BcII. It counts as biochemical. As to the method:
as §1
(§2) In brief IC50 values were determined by preincubation of the appropriate amount of enzyme with the cyclic boronates in the assay buffers for 10 min at room temperature prior to the initiation of the assay by the addition of the appropriate substrate. The enzyme concentrations used are the following: 1 nM BcII, 100 nM VIM-2, 10 nM IMP-1, 10 nM NDM-1, 1 nM SPM-1, 1 nM TEM-1, 1 nM OXA-10, 2.5 nM CphA, 4 μM PBP 3 and 5 μM PBP 5; note that the final concentrations are stated. The assay buffers used are the following: 50 mM HEPES, pH 7.2 supplemented with 1 μg BSA, 1 μg ZnSO4 and 0.01% Triton for BcII, VIM-2, IMP-1, NDM-1 and SPM-1, 15 mM MES, pH 6.5 for CphA, 50 mM HEPES, pH 7.2 supplemented with 200 mM NaCl and 0.01% Triton 100 for TEM-1, 100 mM sodium phosphate, pH 7.2 supplemented with 50 mM NaHCO3 and 0.01% Triton 100 for OXA-10 and 50 mM HEPES, pH 7.2 supplemented with 200 mM NaCl and 0.01% Triton 100 for PBP 3 and PBP 5. The amount of substrates used is the following: 5 μM for BcII, VIM-2, IMP-1, NDM-1 and SPM-1, 10 μM for TEM-1 and OXA-10, 125 μM for CphA and 25 μM for PBP 3 and PBP 5; note that the final concentrations are stated.
(§3) The experiments were performed using a PHERAstar FS microplate reader (BMG Labtech) at room temperature (24–25 °C). All enzymes and inhibitors were prepared in the specific assay buffer. The kinetic values in this study are the means from at least three independent measurements; at least nine different concentrations of the inhibitor were used to determine the kinetic parameters (IC50). The IC50 values were determined using the software package Graph Prism 5.

The target in another data set is T3, PBP 3 (Pseudomonas aeruginosa, UniProt G3XD46).
T3 construct: made in house; host or cells: E. coli
Put plainly: PBP inhibition assay (nitrocefin substrate), PBP 3. It counts as biochemical. To be noted: NI = no inhibition at 100 μM, read-out: IC50 (μM)/pIC50 (converted). The method, then:
as §1, §2, §3

For another data set, the target named is T4, VIM-2 (Escherichia coli, UniProt Q5U7L7).
T4 construct: made in house; host or cells: E. coli
The data set can be described thus: Fluorogenic β-lactamase inhibition assay (FC-5 substrate), VIM-2. It counts as biochemical. As to the method:
as §1, §2, §3

Another data set addresses T5, NDM-1 (Klebsiella pneumoniae, UniProt C7C422).
T5 construct: made in house; host or cells: E. coli
The data set can be described thus: Fluorogenic β-lactamase inhibition assay (FC-5 substrate), NDM-1. It counts as biochemical. The method, then: as §1, §2, §3

The target of another data set is T6, OXA-10 (Pseudomonas aeruginosa, UniProt P14489).
T6 construct: made in house; host or cells: E. coli
Put plainly: Fluorogenic β-lactamase inhibition assay (FC-5 substrate), OXA-10. It counts as biochemical. As to the method: as §1, §2, §3

A further data set deals with SPM-1 (Pseudomonas aeruginosa, UniProt Q8G9Q0). The data set can be described thus: Fluorogenic β-lactamase inhibition assay (FC-5 substrate), SPM-1. It counts as biochemical. The method, then:
as §1, §2, §3

The next data set has as its target T7, TEM-1 (Escherichia coli, UniProt P62593).
T7 construct: made in house; host or cells: E. coli
Put plainly: Fluorogenic β-lactamase inhibition assay (FC-5 substrate), TEM-1. It counts as biochemical. As to the method: as §1, §2, §3

Another data set has as its system HEK293 cells. Put plainly: Cytotoxicity assay (MTS). It counts as cell-based. To be noted: human HEK293 cells, concentrations up to 100 μM, 24 h. The method, then:
HEK293 cells were seeded (2,000 per well) in normal DMEM in 96-well plates.[34] After 24 h, wells were dosed with titrated concentration of compounds in 1% dimethyl sulphoxide (DMSO)—final volume of media about 100 μl. Following a further 24 h incubation period, 20 μl tetrazolium (MTS, CellTiter96Aqueous One Solution (Promega)) was added to the media in each well. The plate was incubated at 37 °C, 5% CO2 for 4 h in the dark before absorbance was read at 490 nm to determine cell proliferation values.

Another data set addresses T8, CphA (Aeromonas hydrophila, UniProt P26918).
T8 construct: made in house; host or cells: E. coli
The data set can be described thus: B2 MBL inhibition assay (meropenem substrate), CphA. It counts as biochemical, Aeromonas hydrophilia. The method, then:
as §1, §2, §3

T7 sequence (P62593 24-286 limits assumed): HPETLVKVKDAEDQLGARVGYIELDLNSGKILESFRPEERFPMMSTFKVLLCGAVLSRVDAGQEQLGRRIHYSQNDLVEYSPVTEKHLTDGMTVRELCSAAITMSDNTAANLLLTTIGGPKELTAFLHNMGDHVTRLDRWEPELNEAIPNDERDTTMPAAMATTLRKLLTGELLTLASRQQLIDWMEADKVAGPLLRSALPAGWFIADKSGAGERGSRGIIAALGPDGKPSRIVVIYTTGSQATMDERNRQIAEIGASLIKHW
T2 sequence (P04190 31-257): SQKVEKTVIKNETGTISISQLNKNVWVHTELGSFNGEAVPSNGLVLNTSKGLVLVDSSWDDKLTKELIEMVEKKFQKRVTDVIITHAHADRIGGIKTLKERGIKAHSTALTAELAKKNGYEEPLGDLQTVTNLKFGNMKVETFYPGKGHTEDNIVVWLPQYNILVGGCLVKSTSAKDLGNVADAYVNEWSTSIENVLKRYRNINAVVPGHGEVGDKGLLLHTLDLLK
T8 sequence (P26918 28-254): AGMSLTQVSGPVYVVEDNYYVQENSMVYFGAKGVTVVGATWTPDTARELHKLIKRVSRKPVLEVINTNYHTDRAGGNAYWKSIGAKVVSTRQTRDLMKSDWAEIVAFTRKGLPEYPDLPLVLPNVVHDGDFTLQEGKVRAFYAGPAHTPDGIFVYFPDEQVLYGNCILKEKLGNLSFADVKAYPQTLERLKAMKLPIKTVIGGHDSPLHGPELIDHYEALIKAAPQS
Chain of SPM-1 (Q8G9Q0 entry or part of it): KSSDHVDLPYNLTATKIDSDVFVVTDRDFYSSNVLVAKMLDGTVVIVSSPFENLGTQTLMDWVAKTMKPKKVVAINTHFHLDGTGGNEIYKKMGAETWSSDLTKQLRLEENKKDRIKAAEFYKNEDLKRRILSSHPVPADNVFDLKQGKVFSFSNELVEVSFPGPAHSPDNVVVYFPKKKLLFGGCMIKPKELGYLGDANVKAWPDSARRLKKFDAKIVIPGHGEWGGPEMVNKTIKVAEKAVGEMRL
T5 sequence (C7C422 29-270, looked up, species assumed): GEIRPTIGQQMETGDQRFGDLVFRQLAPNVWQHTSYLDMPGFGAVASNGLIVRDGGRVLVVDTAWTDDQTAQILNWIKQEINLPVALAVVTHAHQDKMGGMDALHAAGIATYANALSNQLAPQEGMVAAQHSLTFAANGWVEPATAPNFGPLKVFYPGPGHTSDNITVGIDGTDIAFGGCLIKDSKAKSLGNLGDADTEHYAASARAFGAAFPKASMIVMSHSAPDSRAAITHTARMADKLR
T1 sequence (P52699 19-246, looked up, species assumed): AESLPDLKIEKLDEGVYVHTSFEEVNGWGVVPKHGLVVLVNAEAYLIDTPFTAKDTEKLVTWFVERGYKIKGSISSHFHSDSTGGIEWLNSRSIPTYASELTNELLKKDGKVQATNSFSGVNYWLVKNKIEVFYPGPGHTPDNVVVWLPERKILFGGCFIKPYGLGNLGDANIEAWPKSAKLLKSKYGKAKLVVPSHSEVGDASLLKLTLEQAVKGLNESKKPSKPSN
T3 sequence (G3XD46 whole entry): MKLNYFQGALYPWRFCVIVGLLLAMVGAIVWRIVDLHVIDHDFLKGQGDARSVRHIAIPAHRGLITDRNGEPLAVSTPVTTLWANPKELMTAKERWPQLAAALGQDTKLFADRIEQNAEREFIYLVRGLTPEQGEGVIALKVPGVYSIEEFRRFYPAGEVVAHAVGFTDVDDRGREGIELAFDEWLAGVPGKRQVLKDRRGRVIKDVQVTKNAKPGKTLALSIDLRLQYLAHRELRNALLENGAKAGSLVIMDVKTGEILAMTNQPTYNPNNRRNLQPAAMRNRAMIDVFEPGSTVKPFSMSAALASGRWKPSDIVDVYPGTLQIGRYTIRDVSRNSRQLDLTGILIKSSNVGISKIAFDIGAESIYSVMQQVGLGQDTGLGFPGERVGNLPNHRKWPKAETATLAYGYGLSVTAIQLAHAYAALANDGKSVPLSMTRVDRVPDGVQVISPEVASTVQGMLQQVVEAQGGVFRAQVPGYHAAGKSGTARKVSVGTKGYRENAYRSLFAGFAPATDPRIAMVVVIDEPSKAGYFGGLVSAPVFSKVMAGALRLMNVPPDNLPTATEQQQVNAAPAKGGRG
T6 sequence (P14489 20-266, species assumed): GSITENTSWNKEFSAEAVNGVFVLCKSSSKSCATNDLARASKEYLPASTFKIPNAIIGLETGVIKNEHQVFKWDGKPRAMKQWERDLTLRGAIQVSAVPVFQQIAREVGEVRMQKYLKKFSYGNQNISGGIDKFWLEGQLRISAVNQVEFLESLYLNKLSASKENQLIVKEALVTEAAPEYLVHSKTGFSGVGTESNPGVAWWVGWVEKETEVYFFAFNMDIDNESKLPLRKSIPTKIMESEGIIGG

The pIC50 is −log10 of the IC50, conventionally taken in molar units. A low value points to a high IC50. In the case of `O=C(O)c1cccc2c1O[B-](O)(O)[C@@H](NC(=O)C1CCCCC1)C2` [compound 1], the pIC50 is 4.6 against IMP-1; 5.1 against BcII; 7.3 at VIM-2; 5.7 against NDM-1; 6.4 at OXA-10; 4.6 at SPM-1. Also, the values for the pIC50 against TEM-1 and against CphA were 8.9 and 5.3, respectively. The IC50 against BcII (10 min preincubation) is 7.27 µM; on PBP 3, greater than 100 µM; against VIM-2 (10 min preincubation), 0.051 µM; against NDM-1 (10 min preincubation) it was 2.04 µM; against SPM-1 (10 min preincubation), 24.1 µM; against TEM-1 (10 min preincubation), 0.001 µM. Also, the IC50 on CphA (10 min preincubation) was found to be 4.42 µM. Further, the cytotoxicity result in the data set on HEK293 cells is “Neither 1 nor 2 showed cytotoxicity”.
